How the values were obtained:
[1] = Oral treatment of a person with andropause-type symptoms; type: in vivo, human; conditions: oral 3×100 mg daily, 4 weeks, one person
Procedure: A person with complaints of decreased libido, lethargy, depression, and muscular weakness, was treated for 4 weeks with oral androstenedione 3×100 mg daily. […] After a 2 week respite, they then commenced a 4 week regimen of 5alpha-ANDROST-1-EN-3,17-DIONE using the same protocol (3×100 mg daily).

[2] = 100 mg orally to men; cited from earlier work
[3] = Steroids (8) 216; cited from earlier work

Compound	reported improvement of symptoms (decreased libido, lethargy, depression, muscular weakness) [1]	excretion of 17beta-hydroxy-5alpha-androst-1-en-3-one in the urine [2]	anabolic properties relative to testosterone [3]
C[C@]12C=CC(=O)C[C@@H]1CC[C@@H]1[C@@H]2CC[C@]2(C)C(=O)CC[C@@H]12 [5alpha-ANDROST-1-EN-3,17-DIONE, 5alpha-androst-1-en-3,17-dione]	clearly evident significant improvements in all their symptoms	considerable excretion	
C[C@]12C=CC(=O)C[C@@H]1CC[C@@H]1[C@@H]2CC[C@]2(C)[C@@H](O)CC[C@@H]12 [17beta-hydroxy-5alpha-androst-1-en-3-one]			considerably more potent
C[C@]12CCC(=O)C=C1CC[C@@H]1[C@@H]2CC[C@]2(C)C(=O)CC[C@@H]12 [androstenedione, 4-androstenedione]	did not report any noticeable improvement		

Reference: US6391868B1, “Use of 5-alpha-androst-1-en-3,17-dione to increase the level of the anabolic/androgenic hormone 17-beta-hydroxy-5-alpha-androst-1-en-3-one in humans” (LPT Research, Inc., priority 2000, dated 2002)
